Square brackets hold non-standard residues; d marks the D form. Peptide text beside a SMILES is read from it. Ala(4-thiazolyl) = N[C@@H](Cc1cscn1)C(=O)O; 2Pal = N[C@@H](Cc1ccccn1)C(=O)O; 3Pal = N[C@@H](Cc1cccnc1)C(=O)O; 2Thi = N[C@@H](Cc1cccs1)C(=O)O A value given as a limit tells only on which side of the number the result lay.

This is an account of results in ChEMBL document CHEMBL1128290, “Opioid receptor binding requirements for the delta-selective peptide deltorphin. I: Phe3 replacement with ring-substituted and heterocyclic amino acids” (J Med Chem, 1995).

For one experiment, the target named is Mu-type opioid receptor (Cavia porcellus, UniProt P97266). The experiment can be described thus: Inhibition of [3H]DAMGO binding to Opioid receptor mu 1 of guinea pig brain.
Mu-type opioid receptor, sequence (P97266 whole entry): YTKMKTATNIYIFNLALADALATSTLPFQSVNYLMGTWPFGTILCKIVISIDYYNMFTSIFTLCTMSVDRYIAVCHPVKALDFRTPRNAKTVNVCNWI
The target of experiment [1] is Kappa-type opioid receptor (Cavia porcellus, UniProt P41144). Description: Inhibition of [3H]- U 69593 from Opioid receptor kappa 1 of guinea pig brain.
Kappa-type opioid receptor, sequence (P41144 whole entry): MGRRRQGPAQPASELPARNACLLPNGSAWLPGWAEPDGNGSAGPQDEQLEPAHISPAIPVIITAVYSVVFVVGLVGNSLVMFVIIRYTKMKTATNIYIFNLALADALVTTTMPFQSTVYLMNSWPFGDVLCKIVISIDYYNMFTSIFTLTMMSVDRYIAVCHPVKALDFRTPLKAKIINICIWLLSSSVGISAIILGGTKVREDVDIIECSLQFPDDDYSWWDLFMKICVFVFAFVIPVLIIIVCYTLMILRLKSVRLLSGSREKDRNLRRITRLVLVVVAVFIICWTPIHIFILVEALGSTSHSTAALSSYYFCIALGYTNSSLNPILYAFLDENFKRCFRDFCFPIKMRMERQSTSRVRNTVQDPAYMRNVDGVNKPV

The Ki is the dissociation constant of the complex between target and ligand, obtained from inhibition or displacement. Consider `Cc1ccc(C[C@H](NC(=O)[C@H](C)NC(=O)[C@@H](N)Cc2ccc(O)cc2)C(=O)N[C@@H](CC(=O)O)C(=O)N[C@H](C(=O)N[C@H](C(=O)NCC(N)=O)C(C)C)C(C)C)cc1`, for which the Ki (at Mu-type opioid receptor; in experiment [1]) was greater than 10 µM throughout.

Turning to `CC(C)[C@H](NC(=O)[C@H](CC(=O)O)NC(=O)[C@H](Cc1ccc(F)cc1)NC(=O)[C@H](C)NC(=O)[C@@H](N)Cc1ccc(O)cc1)C(=O)N[C@H](C(=O)NCC(N)=O)C(C)C`, the Ki was 10 µM at Mu-type opioid receptor and greater than 10 µM in experiment [1].

Consider `Cc1c(C)c(C)c(C[C@H](NC(=O)[C@H](C)NC(=O)[C@@H](N)Cc2ccc(O)cc2)C(=O)N[C@@H](CC(=O)O)C(=O)N[C@H](C(=O)N[C@H](C(=O)NCC(N)=O)C(C)C)C(C)C)c(C)c1C` (stereo in doubt; 5a), for which the Ki (on Mu-type opioid receptor; in experiment [1]) was greater than 10 µM in each case.

`CC(C)[C@H](NC(=O)[C@H](CC(=O)O)NC(=O)[C@H](Cc1c(F)c(F)c(F)c(F)c1F)NC(=O)[C@H](C)NC(=O)[C@@H](N)Cc1ccc(O)cc1)C(=O)N[C@H](C(=O)NCC(N)=O)C(C)C`: the Ki (on Mu-type opioid receptor; in experiment [1]) was greater than 10 µM throughout.

Turning to `CC(C)[C@H](NC(=O)[C@H](CC(=O)O)NC(=O)[C@H](Cc1ccccn1)NC(=O)[C@H](C)NC(=O)[C@@H](N)Cc1ccc(O)cc1)C(=O)N[C@H](C(=O)NCC(N)=O)C(C)C` (H-YA[2Pal]DVVG-NH2), the Ki at Mu-type opioid receptor is 2.93 µM; in experiment [1] it was greater than 10 µM.

Turning to `Cc1c(C)c(C)c(C[C@H](NC(=O)[C@H](C)NC(=O)[C@@H](N)Cc2ccc(O)cc2)C(=O)N[C@@H](CC(=O)O)C(=O)N[C@H](C(=O)N[C@H](C(=O)NCC(N)=O)C(C)C)C(C)C)c(C)c1C` (stereo in doubt; 5b), the Ki (on Mu-type opioid receptor; in experiment [1]) was greater than 10 µM in each case.

As to `CC(C)[C@H](NC(=O)[C@H](CC(=O)O)NC(=O)[C@H](Cc1cccc(F)c1)NC(=O)[C@H](C)NC(=O)[C@@H](N)Cc1ccc(O)cc1)C(=O)N[C@H](C(=O)NCC(N)=O)C(C)C` (stereo in doubt; 2a), the Ki at Mu-type opioid receptor was 0.411 µM; in experiment [1] it was greater than 10 µM.

Turning to `CC(C)[C@H](NC(=O)[C@H](CC(=O)O)NC(=O)[C@H](Cc1cccnc1)NC(=O)[C@H](C)NC(=O)[C@@H](N)Cc1ccc(O)cc1)C(=O)N[C@H](C(=O)NCC(N)=O)C(C)C` (H-YA[3Pal]DVVG-NH2), the Ki is 10 µM at Mu-type opioid receptor and greater than 10 µM in experiment [1].

Turning to `CC(C)[C@H](NC(=O)[C@H](CC(=O)O)NC(=O)[C@H](Cc1cscn1)NC(=O)[C@H](C)NC(=O)[C@@H](N)Cc1ccc(O)cc1)C(=O)N[C@H](C(=O)NCC(N)=O)C(C)C` (H-YA[Ala(4-thiazolyl)]DVVG-NH2), the Ki at Mu-type opioid receptor was 2.8 µM; in experiment [1] it was greater than 10 µM.

As for `CC(NC(=O)[C@@H](N)Cc1ccc(O)cc1)C(=O)N[C@@H](Cc1ccccc1)C(=O)N[C@@H](CC(=O)O)C(=O)N[C@H](C(=O)N[C@H](C(=O)NCC(N)=O)C(C)C)C(C)C` (single isomer, unassigned) [DELTORPHIN C], the Ki at Mu-type opioid receptor was 0.677 µM; in experiment [1], greater than 10 µM.

For `CC(C)[C@H](NC(=O)[C@H](CC(=O)O)NC(=O)[C@H](Cc1cccs1)NC(=O)[C@H](C)NC(=O)[C@@H](N)Cc1ccc(O)cc1)C(=O)N[C@H](C(=O)NCC(N)=O)C(C)C` (H-YA[2Thi]DVVG-NH2), the values for the Ki (on Mu-type opioid receptor; in experiment [1]) were 0.419 µM and greater than 10 µM, respectively.

In the case of H-YAHDVVG-NH2, the Ki (at Mu-type opioid receptor; in experiment [1]) was greater than 10 µM each time.

As to `CC(C)[C@H](NC(=O)[C@H](CC(=O)O)NC(=O)[C@H](Cc1cccc(F)c1)NC(=O)[C@H](C)NC(=O)[C@@H](N)Cc1ccc(O)cc1)C(=O)N[C@H](C(=O)NCC(N)=O)C(C)C` (stereo in doubt; 2b), the Ki is 3.48 µM at Mu-type opioid receptor and greater than 10 µM in experiment [1].
